Values of other authors in article PMC8473701.

experiment: not told

Row | SMILES | log partition aniline / water [log10] | log partition hexadecane / water [log10] | log partition chloroform / water [log10] | log partition octanol / water [log10] | log partition 1-octanol / water [log10]
1 | CC(C)C | 2.488 | 3.11 |  |  | 
2 | Cc1cnccn1 |  | -0.79 | 1.04 | 0.23 | 
3 | COc1cccc(O)c1 |  | -1.08 | 0.77 | 1.58 | 
4 | CCC(C)C | 2.880 | 3.76 |  |  | 
5 | ClCCl | 1.562 | 1.06 | 2.00 | 1.25 | 1.25
6 | CC1CCCC1 |  | 3.99 |  |  | 3.37
7 | CCCl | 1.481 | 1.22 |  |  | 
